Results as given in US12564605B2, “Plant based compositions and methods for the delivery of magnesium” (Standard Process, Inc., priority 2018, dated 2026).

System: recognition learning and memory retrieval
Assay: Novel Object Recognition (NOR) test
Assay type: in vivo, Sprague Dawley rats
Settings: rats on low Mg diet; in comparison to Magtein and placebo control; FIG. 7
Description: Male Sprague Dawley rats (150-175 grams on arrival) from Envigo (Indianapolis, IN) were used in the study. Upon receipt, rats were assigned unique identification numbers and were group housed with 2-3 rats per cage in ventilated cages with micro-isolator filter tops. All rats were examined and weighed prior to initiation of the study to assure adequate health and suitability. During the course of the study, 12/12 light/dark cycles will be maintained. The room temperature will be maintained between 20° C. and 23° C. with a relative humidity maintained around 50%.
On the day of arrival to the research facility, animals (except for the normal Mg diet group, N=15) were placed on LabDiet 5008, a diet that is deficient in Mg containing 0.20% magnesium. […]
The Novel Object Recognition (NOR) is a test of recognition learning and memory retrieval, which takes advantage of the spontaneous preference of rodents to investigate a novel object compared to a familiar one. […] All training and testing trials were video-taped and scored by an observer blind to treatments.
On days 1 and 2, rats were allowed to freely explore the arena (no objects inside) for a 5-minute habituation period. […] One hour later, the rats were again placed into the test arena in the presence of one familiar object and one novel object (Object A and Object B), and the time spent exploring both objects is recorded. […]

## O=C([O-])CC(O)(CC(=O)[O-])C(=O)[O-].O=C([O-])CC(O)(CC(=O)[O-])C(=O)[O-].[Mg+2].[Mg+2].[Mg+2] [Mg citrate]
  Cognitive function (Novel Object Recognition test, Recognition Index): trend toward improvement in cognitive function
